# Assay results from US20190352288A1, “MATRIX METALLOPROTEINASE (MMP) INHIBITORS AND METHODS OF USE THEREOF” (Foresee Pharmaceuticals Co., Ltd., priority 2018, published 2019).
# “Also recorded” adds a separate entry of the source.
# Tests used:
# [1] = target: T1, recombinant human MMP-12 catalytic domain (Homo sapiens, UniProt P39900); test: MMP-12 inhibitory assay (fluorogenic substrate cleavage); format: biochemical; settings: readout at 30 minutes, 37° C., Table 1
# T1 construct: recombinant human MMP-12 catalytic domain; purchased Enzo BML-SE138
# T1 sequence (P39900 106-268 limits assumed): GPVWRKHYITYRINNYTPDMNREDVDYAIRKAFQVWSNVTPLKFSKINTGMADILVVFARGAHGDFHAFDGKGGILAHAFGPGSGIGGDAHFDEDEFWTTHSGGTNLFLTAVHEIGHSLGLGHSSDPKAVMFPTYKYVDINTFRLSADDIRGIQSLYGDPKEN
# Method: The inhibitory effect of compounds on the rate of cleaving fluorogenic MMP substrate (Enzo, BML-P128) by recombinant human MMP-12 catalytic domain (Enzo, BML-SE138) was carried out by methods known in the art. Briefly, to each well of a 96-well black opaque plate, all the reagents were sequentially added by pipetting, and the final reaction contained 4 nM of recombinant human MMP-12 catalytic domain, 4 μM of fluorogenic MMP substrate, and various concentrations (0.15 nM to 10,000 nM) of tested compound dilutions in HEPES buffer (pH 7.5) containing 10 mM of CaCl2), 0.01% Brij® 35 (polyoxyethylene (23) lauryl ether), and 0.1 mg/ml of BSA.
# The enzyme and compounds were pre-incubated on a shaker to mix in wells. After an hour of mixing, fluorogenic substrate was added to each well. Reaction without enzyme was used as a blank control in the plate. The plate was then fed into a plate reader to measure fluorescence intensity at Excitation/Emission wavelengths of 340 nm/440 nm every 10 mins for at least 1 hour at 37° C. The IC50 of each compound in MMP-12 inhibition was determined by using a readout obtained at time point 30 minutes.
# [2] = system: SD rat kidney fibrosis model by unilateral ureteral occlusion (UUO); test: Efficacy study on SD rat kidney fibrosis model by unilateral ureteral occlusion (UUO); format: in vivo, Sprague Dawley (SD) rats
# Method: This study was to evaluate the therapeutic efficacy of MMP-12 inhibitor, PC-16 on a renal fibrosis model by unilateral ureteral occlusion (UUO). Male Sprague Dawley (SD) rats (180-220 g, n=71) were used in this study. Animals were randomly divided into 4 groups: vehicle group (group-1, n=8), PC-16 2 mg/kg/day group (group-2, n=9), PC-16 6 mg/kg/day group (group-3, n=10), PC-16 20 mg/kg/day group (group-4, n=9). Animals were anesthetized with 2.5% isoflurane inhelation. The left ureter was ligated to create a unilateral ureteral occlusion (UUO) model to induce renal fibrosis. The test article, PC-16 was administrated twice a day via oral delivery after modeling for 14 days. Peripheral blood serum was prepared at pre-modeling and day-15 (one day after last dosing). All animals were euthanized and processed for left kidney pathology studies.
# Animals: Gender: Male, SD rats, 180-220 g, total 71. Certificate: 11400700272659, Beijing Vital River Laboratory Animal Technology Co., Ltd., China. Animal holding: Animals were maintained in a temperature-controlled environment with a 12 hours light/12 hours dark cycle and free access to food and water. Experimental procedures were performed according to IACUC guidelines in the KCI (SuZhou) Biotech Inc. (KCI) animal research facility. Model creation: Total […] male SD rats were used in this study. After anesthesia with 2.5% isoflurane inhalation the animal abdomen was opened surgically. The left ureter was exposed and ligated close to the bladder to create the UUO model. After confirming no bleeding, the abdomen wall was closed in layers. The animals were maintained under temperature controlled pad (37° C.) for the recovery from anesthesia, and then were transferred to holding cages with regular food and water.
# Experiment grouping: UUO modeling animals were divided into 7 groups randomizedly as vehicle (group-1, n=8), PC-16 2 mg/kg/day (group-5, n=9), PC-16 6 mg/kg/day (group-6, n=10), PC-16 20 mg/kg/day (group-7, n=9) (Table 4.1). Dosing regimen: All test articles were designed as an oral administration via a gastric perfusion. Test articles were designed to be delivered twice a day starting on the same day of modeling for 14 days (Table 4.1). Endpoints: 1) Blood collection: Peripheral blood was collected from all animals in each group and prepared for serum at pre-modeling and day-15 (one day after last dosing), stored at −80° C. All animals were euthanized according to KCI SOP. After confirming animal death without breath and heart bite the left kidneys were perfused with cold PBS followed by 10% neutral formalin and collected for further pathology study. 2) Detection of serum BUN and creatinine: The serum BUN and creatinine level were detected with Hitachi 7060 automatic biochemical analyzer and related test kits. 3) Kidney pathology examination: 3a) Kidney H&E staining and analysis: Following KCI's pathologic SOP all left kidneys were fixed in 10% formalin for at least 24 h at room temperature. After fixation, the kidney was cut longitudinally to get the largest surface and dehydrated in graded ethanol, cleared in xylene, and embedded in paraffin. Thin sections (3-μm) were mounted on glass slides, dewaxed, rehydrated to distilled water, and stained with hematoxylin and eosin (H&E). All stained slides were scanned with NanoZoomer Digital Pathology (S210, Hamamaci, Japan) scanner. Semi quantitative evaluation of the degree of tubular epithelial flattening and dilatation were graded from 0-5 according to the percentage of tubular involvement: score 0=no damage; score 1=1-10% damage; score 2=10-25% damage; score 3=25-50% damage; score 4=50-75% damage; score 5=75-100% damage. Semi quantitative evaluation of the tubular necrosis is graded from 0 to 3 according to the percentage of tubular involvement: score 0=no necrosis; score 1=<25% necrosis; score 2=25-50% necrosis; score 3=>50% necrosis. The average of tubular flattening and dilatation and necrosis as the total tubular damage was presented. […]
# [3] = UUO rats, 20 mg/kg/day (p<0.05)
structure (smiles),measurement,setting,value
Cc1cc(COc2ccc(Sc3ccncc3C3NC(=O)NC3=O)cc2)ccn1 (stereo not drawn) [PC-16],IC50,[1],< 10 nM
same,collagen-IV deposition in cortex area of left kidney (IHC),"[2]; UUO rats, 6 mg/kg/day (P<0.05)",significant reduction in collagen-IV deposition
same,interstitial fibrosis score in cortex,"[2]; UUO rats, 20 mg/kg/day (p<0.001)",significant reduction in the fibrosis score
same,collagen-I deposition in cortex area of left kidney (IHC),[2]; [3],significant reduction in collagen-I deposition
same,collagen-IV deposition in cortex area of left kidney (IHC),[2]; [3],significant reduction in collagen-IV deposition
same,serum blood urea nitrogen (BUN) elevation vs vehicle/model group,"[2]; UUO rats, 20 mg/kg/day oral bid 14 days, day-15, 20 mg/kg/day",slightly limit the blood urea nitrogen (BUN) elevation; also recorded: did not show a statistically significant difference
same,left kidney tubular damage (renal tubular damage score),"[2]; UUO rats, 2, 6, 20 mg/kg/day oral bid 14 days, 20 more effective than 2 mg/kg/day (p<0.01)",clear dose dependent effect
same,interstitial inflammation in cortex (semi quantitative score),"[2]; UUO rats, 2, 6, 20 mg/kg/day oral bid 14 days, dose dependent",significant reduction
same,interstitial fibrosis score in cortex,"[2]; UUO rats, all dose groups (2, 6, 20 mg/kg/day), dose dependent",significant reduction in the fibrosis score
